From patent US6676973B1, “Method of treating ovarian cancers with cadmium” (priority 1995, dated 2004)

What was measured:
[1] = system: cellular DNA of A2780/CP70 cells; assay: Cd-DNA adduct formation and repair after IC50 exposure (AAS), A2780/CP70; format: cell-based, human
Procedure: (§1) We examined the formation and removal of Cd-DNA adduct in cellular DNA following 1 hour drug exposures. […] An aliquot of cells was harvested before drug treatment (time zero). Following a 1 hour drug exposure, cells were washed and harvested at. the following time points: 0 hour (immediately at the end of Cd exposure), 1 hour, 6 hour, and 24 hours. Cells were frozen immediately at −20° C. until DNA isolation. Total cellular DNA was isolated and assayed as described above, and total Cd per unit DNA was measured by AAS.

[2] = system: cellular DNA of A2780 cells; assay: Cd-DNA adduct formation and repair after IC50 exposure (AAS), A2780; format: cell-based, human
Procedure: as §1

[3] = system: liver and lung tumors in B6C3F1 mice; conditions: single dose of NDEA followed by cadmium chloride in the drinking water; cited from earlier work
[4] = system: A2780 cells; assay: cellular Cd accumulation after 1 hour exposure to a range of Cd doses (AAS), A2780; format: cell-based, human
Procedure: We examined the cellular Cd accumulation following 1 hour exposures to a range of Cd doses. Cells were grown in T-150 flasks (Costar, Cambridge, Mass.) to 60-80% confluence and then exposed to 10 μM, 50 μM, 100 μM and 200 μM Cd for 1 hour. Cells were harvested, immediately counted and then “wet-ashed” [20]. Total cellular Cd accumulation was measured by atomic absorption spectrometry with Zeeman background correction (AAS), and assessed as nanograms of Cd per million cells (ng Cd/10^6 cells)

[5] = system: A2780 cells; assay: cellular drug accumulation and efflux at IC50 dose (AAS), A2780; format: cell-based, human; conditions: for ASSOCIATED DRUG / PERCENT REMOVED (efflux) / PERCENT ACCUMULATION / DRUG UPTAKE: A2780; for PERCENT ACCUMULATION: IC50 dose; for DRUG UPTAKE: IC50 dose 58 μM
Procedure: (§2) Cells were harvested at time points of 15, 30, 45, and 60 minutes during 1 hour drug exposures, and at 1 and 3 hours after drug exposure. Cells were immediately counted and then wet-ashed. Total cellular drug. accumulation was measured by AAS, and assessed as both nanograms of Cd per million cells (ng Cd/10^6 cells) and as the percentage of the highest levels of total cellular drug.

[6] = system: A2780 cells; assay: microculture tetrazolium (MTT) cytotoxicity assay, A2780; format: cell-based, human; conditions: for IC50: read-out: 50% cell kill (IC50)
Procedure: (§3) Human ovarian cancer A2780 and A2780/CP70 cells were cultured in monolayer using RPMI 1640 media supplemented with 10% fetal calf serum, 2 mM L-glutamine, 0.2 U insulin/ml, 100 U/ml penicillin, and 100 μg/ml streptomycin (GIBCO, Grands Island, N.Y.). Cells were grown in a humidified chamber containing a mixture of 5% CO2 and ambient air at 37° C. Sensitivity of A2780 and A2780/CP70 cells to Cd and to cisplatin was assessed by microculture tetrazolium (MTT) assay, as described by Alley et al. Briefly, cells were plated at 1000 cells/well in 96-well plates and drug exposure was made the following day. Cadmium dichloride was initially dissolved in double distilled water (Dh2O) at 1.0 mg/ml (5.46 Mm Cadmium), and dilutions from this solution were made in media to obtain the desired drug treatment concentrations of 1 μM, 10 μM, 20 μM, 40 μM, 100 μM, 150 μM and 200 μM. Cisplatin was dissolved in PBS without Ca^++ or Mg^++ at 1.0 mg/ml (3.33 Mm cisplatin), and dilutions from this solution was made in media to obtain the desired drug treatment concentrations of ranging from 1 μM to 300 μM. Drug treatments were for 1 hour.
(§4) After drug treatments, cells were washed twice with PBS without Ca^++ or Mg^++, treated with fresh drug-free media, and incubated for 5 days. On day 5 after drug treatment, 50 microliter of 3-(4,5-dimethylthiazol-2-yl)-2,5 diphenyltetrazolium bromide (MTT) (400 mg in 200 ml of PBS) were added to each well and incubated for 4 hours at 37° C. Analysis of optical density readings were performed using the VV Deltasoft program on a Macintosh computer (Apple, Inc., Palo Alto, Calif.) and percentage cell growth values were obtained.

[7] = system: cellular DNA of A2780/CP70 cells; assay: Cd-DNA adduct formation after 1 hour exposure to a range of Cd doses (AAS), A2780/CP70; format: cell-based, human
Procedure: We examined the formation of Cd-DNA adduct in cellular DNA following 1 hour exposures to a range of Cd drug doses. Cells were grown in T-150 flasks (Costar, Cambridge, Mass.) to 60-80% confluence and then exposed to 0 μM (control), 10 μM, 50 μM, 100 μM and 200 μM Cd for 1 hour. Following a 1 hour drug exposure, cells were washed twice with cold PBS, harvested, and frozen immediately at −20° C. until DNA isolation. Total cellular DNA was isolated on cesium chloride density gradients. DNA was dialyzed against Dh2O with 3-4 changes over 36-48 hours, and quantitated by absorbance at 260 nm. Total Cd per unit DNA was measured by AAS.

[8] = system: A2780/CP70 cells; format: cell-based, human; conditions: for IC50: read-out: 50% cell kill (IC50)
Procedure: as §3, §4

[9] = system: A2780/CP70 cells; assay: cellular drug accumulation and efflux at IC50 dose (AAS), A2780/CP70; format: cell-based, human; conditions: for PERCENT ACCUMULATION: IC50 dose; for DRUG UPTAKE: IC50 dose 128 μM
Procedure: as §2

[10] = 0 hours after 1 hour IC50 exposure
[11] = 1 hour after 1 hour IC50 exposure
[12] = 3 hours after 1 hour IC50 exposure
[13] = 3 hours after 1 hour IC50 exposure, listed as Cadmium
[14] = A2780 cells, 1 hour exposure, MTT
[15] = A2780/CP70 cells, 1 hour exposure, MTT

[Cl][Cd][Cl] [Cd, Cadmium dichloride]
Cd-DNA ADDUCT ([1]; 0 hours after 1 hour IC50 (128 μM) exposure, peak): 15.58±3.56 pg Cd/μg DNA
Cd-DNA ADDUCT ([1]; 0 hours after 1 hour IC50 (128 μM) exposure, peak, listed as Cadmium): 15.58 ± 3.56 pg Cd/μg DNA
% REPAIR (amount of peak adduct removed) ([1]; 0 hours after IC50 exposure): 0%
Cd-DNA ADDUCT ([1]; 1 hour after 1 hour IC50 (128 μM) exposure): 13.31 ± 4.62 pg Cd/μg DNA
% REPAIR (amount of peak adduct removed) ([1]; 1 hour after IC50 exposure): 15%
Cd-DNA ADDUCT ([1]; 6 hours after 1 hour IC50 (128 μM) exposure): 12.05±3.98 pg Cd/μg DNA
Cd-DNA ADDUCT ([1]; 6 hours after 1 hour IC50 (128 μM) exposure, listed as Cadmium): 12.05 ± 3.98 pg Cd/μg DNA
% REPAIR (amount of peak adduct removed) ([1]; 6 hours after IC50 exposure): 23%
Cd-DNA ADDUCT ([1]; 24 hours after 1 hour IC50 (128 μM) exposure): 8.47±2.85 pg Cd/μg DNA
Cd-DNA ADDUCT ([1]; 24 hours after 1 hour IC50 (128 μM) exposure, listed as Cadmium): 8.47 ± 2.85 pg Cd/μg DNA
% REPAIR (amount of peak adduct removed) ([1]; 24 hours after IC50 exposure): 46%
Cd-DNA ADDUCT ([2]; 0 hours after 1 hour IC50 (58 μM) exposure): 8.45 ± 3.59 pg Cd/μg DNA
% REPAIR (amount of peak adduct removed) ([2]; 0 hours after IC50 exposure): 0%
Cd-DNA ADDUCT ([2]; 1 hour after 1 hour IC50 (58 μM) exposure, peak): 11.81±6.59 pg Cd/μg DNA
Cd-DNA ADDUCT ([2]; 1 hour after 1 hour IC50 (58 μM) exposure, peak, listed as Cadmium): 11.81 ± 6.59 pg Cd/μg DNA
% REPAIR (amount of peak adduct removed) ([2]; 1 hour after IC50 exposure): no removal
% REPAIR (amount of peak adduct removed) ([2]; 1 hour after IC50 exposure, listed as Cadmium): 0%
Cd-DNA ADDUCT ([2]; 6 hours after 1 hour IC50 (58 μM) exposure): 7.08±3.92 pg Cd/μg DNA
Cd-DNA ADDUCT ([2]; 6 hours after 1 hour IC50 (58 μM) exposure, listed as Cadmium): 7.08 ± 3.92 pg Cd/μg DNA
% REPAIR (amount of peak adduct removed) ([2]; 6 hours after IC50 exposure): 40%
Cd-DNA ADDUCT ([2]; 24 hours after 1 hour IC50 (58 μM) exposure): 5.28±3.11 pg Cd/μg DNA
Cd-DNA ADDUCT ([2]; 24 hours after 1 hour IC50 (58 μM) exposure, listed as Cadmium): 5.28 ± 3.11 pg Cd/μg DNA
% REPAIR (amount of peak adduct removed) ([2]; 24 hours after IC50 exposure): 55%
incidence and multiplicity of NDEA-induced lung tumors [3]: reduced
spontaneously-occurring liver tumors [3]: eliminated
slope of linear regression, cellular Cd versus Cd dose ([4]; A2780 cells, 1 hour exposure, up to 200 μM): 0.024
more cellular drug accumulated per unit dose, A2780 versus A2780/CP70 ([4]; from slopes of linear regression): 4.9 fold
ASSOCIATED DRUG [5, 10]: 20.85 ± 4.4 ng Cd/10^6 Cells
PERCENT REMOVED (efflux) ([5]; 0 hours after exposure): 90%
PERCENT ACCUMULATION ([5]; 15 minutes): 33%
DRUG UPTAKE ([5]; 15 minutes): 6.89 ± 0.53 ng Cd/10^6
PERCENT ACCUMULATION ([5]; 30 minutes): 47%
DRUG UPTAKE ([5]; 30 minutes): 9.83 ± 1.06 ng Cd/10^6
PERCENT ACCUMULATION ([5]; 45 minutes): 60%
DRUG UPTAKE ([5]; 45 minutes): 12.47 ± 1.95 ng Cd/10^6
ASSOCIATED DRUG [5, 11]: 12.74 ± 3.74 ng Cd/10^6 Cells
PERCENT REMOVED (efflux) ([5]; 1 hour after exposure): 30%
PERCENT ACCUMULATION ([5]; 60 minutes): 100%
DRUG UPTAKE ([5]; 60 minutes): 20.85±4.49 ng Cd/10^6
DRUG UPTAKE ([5]; 60 minutes, listed as Cadmium): 20.85 ± 4.49 ng Cd/10^6
ASSOCIATED DRUG [5, 12]: 6.56±0.58 ng Cd/10^6 Cells
ASSOCIATED DRUG [5, 13]: 6.56 ± 0.58 ng Cd/10^6 Cells
PERCENT REMOVED (efflux) ([5]; 3 hours after exposure): 69%
greater rate of Cd accumulation, A2780 versus A2780/CP70 ([5]; from slopes, respective IC50 doses): 2.8 fold
10% cell kill [6, 14]: 0.45 µM
90% cell kill [6, 14]: 130 µM
IC50 [6, 14]: 58 µM
more DNA damage required in resistant A2780/CP70 cells to induce an equivalent level of cell kill ([7]; FIG. 5B, A2780/CP70 versus A2780): 5-10 lesions per million DNA bases
more Cd needed in A2780/CP70 to attain the same level of Cd-DNA damage as in A2780 ([7]; from slopes of the equations): 1.7 fold
10% cell kill [8, 15]: 28 µM
90% cell kill [8, 15]: 195 µM
IC50 [8, 15]: 128 µM
level of cross-resistance of A2780/CP70 cells to Cd ([8]; compared with 10-fold resistance to cisplatin): approximately equal level
A2780/CP70 cells more sensitive to Cd (than to cisplatin) ([8]; on a μM basis, 50% cell kill): 1.25 fold
ASSOCIATED DRUG [9, 10]: 6.61 ± 1.4 ng Cd/10^6 Cells
PERCENT REMOVED (efflux) ([9]; 0 hours after exposure): 80%
PERCENT ACCUMULATION ([9]; 15 minutes): 10%
DRUG UPTAKE ([9]; 15 minutes): 0.65 ± 0.16 ng Cd/10^6
PERCENT ACCUMULATION ([9]; 30 minutes): 46%
DRUG UPTAKE ([9]; 30 minutes): 3.03 ± 1.11 ng Cd/10^6
PERCENT ACCUMULATION ([9]; 45 minutes): 66%
DRUG UPTAKE ([9]; 45 minutes): 4.33 ± 2.02 ng Cd/10^6
ASSOCIATED DRUG [9, 11]: 4.08 ± 1.4 ng Cd/10^6 Cells
PERCENT REMOVED (efflux) ([9]; 1 hour after exposure): 38%
PERCENT ACCUMULATION ([9]; 60 minutes): 100%
DRUG UPTAKE ([9]; 60 minutes): 6.61±1.48 ng Cd/10^6
DRUG UPTAKE ([9]; 60 minutes, listed as Cadmium): 6.61 ± 1.48 ng Cd/10^6
ASSOCIATED DRUG [9, 12]: 2.08±0.92 ng Cd/10^6 Cells
ASSOCIATED DRUG [9, 13]: 2.08 ± 0.92 ng Cd/10^6 Cells
PERCENT REMOVED (efflux) ([9]; 3 hours after exposure): 69%

N.N.[Cl][Pt][Cl] [cisplatin, reference compound]
IC50 [6, 14]: 16 µM
A2780 cells more sensitive to cisplatin than to Cd ([6]; on a μM basis, 50% cell kill): 3.6 fold
IC50 [8, 15]: 160 µM
increase in resistance of A2780/CP70 cells as compared to A2780 cells ([8]; drug exposures associated with 50% cell kill): 10 fold
